Results from patent US7737119B2, “Cosmetic or pharmaceutical composition comprising peptides, uses and treatment processes” (Societe d'Extraction des Principes Actifs S.A., priority 2002, dated 2010).
One block for each substance: values may come before it. Where no end group is shown, it is not given here.

Key:
keratinocytes = assay: Adhesion between cutaneous cells, MTT reading of adherent keratinocytes in 96 well micro-plates; format: cell-based; details: after 3 hours of contact with the keratinocytes; compared with the other peptides tested
Method: The study is performed in 96 well micro-plates on keratinocytes cultured in an incubator at 37° C. and 5% of CO2.
The wells are pre-treated during 12 hours in a different way; four conditions are thus performed: • Condition A: negative control, containing no peptide; • Condition B: incubated with various peptides, made of 3 to 25 amino acids (from the extracellular matrix), with a concentration from 5 to 50 ppm; • Condition C: incubated with the peptide of sequence Arg-Asp-Phe-Thr-Lys-Ala-Thr-Asn-Ile-Arg-Leu-Arg-Phe-Leu-Arg (SEQ ID NO: 3) to a concentration of 5 ppm.
After 3 hours of contact with the keratinocytes, the wells are completely filled with culture medium, hermetically closed, turned over and agitated on a three-dimensional agitator during 20 minutes. Then the plates are emptied and the medium remaining is aspired. 100 μl of MTT with 1 mg/ml per well is added and is left during 3 hours at 37° C. and 5% of CO2. The solution is finally withdrawn and 100 μl of DMSO is added. A reading of C is made at 560 nm against 630 nm.
The results present the various Optical Density (O.D.) obtained according to the various conditions. The O.D. is proportional to the quantity of viable cells, that is to say those which adhered to the micro-plates.

keratin = assay: Immunofluorescence study of keratin expression in ex vivo human skin samples; format: cell-based; details: 48 hours
Method: (§1) Human fibroblasts are plated in Labteks then cultured for one night. After rinsing with HBS buffer, a composition containing 1% of a solution at 100 ppm of the peptide SEQ ID NO: 5, or a control composition containing no peptide, is added. The cells are then incubated for 48 hours. After performing the elimination of the supernatants and rinsing the cultures, the cells are fixed with paraformaldehyde for 30 minutes at 4° C. then rinsed with PBS buffer.
(§2) 200 μL of anti-fibronectin antibody or anti-collagen I, or anti-collagen III polyclonal antibody obtained in the rabbit (TEBU) are then added. Incubation lasts 30 minutes at room temperature. The supernatants are eliminated and the cells are rinsed with PBS. 200 μL of secondary antibody, coupled to a fluorescent marker (Alexa-fluor 488) are then added. After 30 minutes of incubation at room temperature, the supernatants are eliminated and the cells are rinsed with the PBS.
(§3) The slides are then assembled and examined under epi-fluorescence microscope (Nikon Eclipse E600). The quantities of fibronectine and/or collagen of the type I and III, synthesized by the cells, are proportional to fluorescence intensity.
A study by immunofluorescence technique, identical to that of Example 3, was performed on ex vivo human skin samples, with anti-keratin monoclonal antibody (Novocastra).

β1 integrin = assay: Immunofluorescence study of β1 integrin expression in HaCat human keratinocytes; format: cell-based; details: 48 hours
Method: as §1, §2, §3
(§4) A study by immunofluorescence technique, identical to that of example 3, was performed on HaCat human keratinocytes, with anti-laminin-5 antibodies and/or β1 anti-integrin antibodies.

fibronectin = assay: Immunofluorescence study of fibronectin expression in human fibroblasts; format: cell-based; details: 1% of a solution at 100 ppm of peptide, 48 hours
Method: (§5) The immunofluorescence is a semi-quantitative technique which makes it possible to appreciate the rate of each protein present in the cellular cytoplasm.
as §1, §2, §3

type III collagen = assay: Immunofluorescence study of type III collagen expression in human fibroblasts; format: cell-based; details: 1% of a solution at 100 ppm of peptide, 48 hours
Method: as §5, §1, §2, §3

type I collagen = assay: Immunofluorescence study of type I collagen expression in human fibroblasts; format: cell-based; details: 1% of a solution at 100 ppm of peptide, 48 hours
Method: as §5, §1, §2, §3

laminin-5 = assay: Immunofluorescence study of laminin-5 expression in HaCat human keratinocytes; format: cell-based; details: 48 hours
Method: as §1, §2, §3, §4

[1] = Stability of peptide in solution by HPLC (C18) at various temperatures; format: physicochemical; details: 10^−4 M
Method: Peptide SEQ ID NO: 3 Arg-Asp-Phe-Thr-Lys-Ala-Thr-Asn-Ile-Arg-Leu-Arg-Phe-Leu-Arg was analyzed with a concentration of 10^−4 M by HPLC on a C18 type column, and with a linear gradient water/TFA 0.1%-acetonitrile/TFA 0.1%.

[2] = Stability of peptide in culture medium conditioned by human fibroblasts and keratinocytes (released enzymes of degradation); format: in vitro ADME; details: after 24 hours in culture medium withdrawn from human fibroblasts and keratinocytes cultured 24 hours at 37° C.
Method: Human fibroblasts and keratinocytes were cultured during 24 hours at 37° C. and to 5% of CO2. For this period, the cells will release numerous enzymes of degradation in the culture medium. Thereafter, the culture medium is withdrawn to be put in the presence of peptide.

[3] = test system: fibroblasts as well as human keratinocytes in culture; assay: Peptide applied to cells in culture, HPLC analysis of the culture medium; format: cell-based; details: peptide applied to fibroblasts and human keratinocytes in culture, in a few hours
Method: A test is performed by applying the peptide to fibroblasts as well as to human keratinocytes in culture.

Substance: DFTKATNIRLRFLR [SEQ ID NO: 11]
cell adhesion (keratinocytes): very good cell adhesion

Substance: IRLRFLR [SEQ ID NO: 4]
keratin expression (fluorescence intensity) (keratin): increases

Substance: Ile-Arg-Leu-Arg-Phe-Leu-Arg-NH2 (IRLRFLR-NH2) [SEQ ID NO: 5]
β1 integrin synthesis (fluorescence intensity) (β1 integrin): increase
fibronectin synthesis (fluorescence intensity) (fibronectin): increases
type III collagen synthesis (fluorescence intensity) (type III collagen): increases
type I collagen synthesis (fluorescence intensity) (type I collagen): increases
laminin-5 synthesis (fluorescence intensity) (laminin-5): increase

degradation of the peptide ([1]; after 24 hours at 25° C., 37° C. and 60° C.): no degradation
degradation of the peptide ([1]; after 8 days at 25° C.): does not present degradation
degradation of the peptide [2]: almost no degradation
peptide concentration in the culture medium [3]: decreases quickly
Substance: RDFTKATNIRLRFLR [SEQ ID NO: 3, Arg-Asp-Phe-Thr-Lys-Ala-Thr-Asn-Ile-Arg-Leu-Arg-Phe-Leu-Arg]
